Measured values reported in patent US10028961B2, “Therapeutically active compounds and their methods of use” (AGIOS PHARMACEUTICALS, INC., priority 2013, dated 2018).
pIC50: −log10 of the molar value. Like-named read-outs stand apart in the source and are kept apart here.

Tests used:
[1] = biological target: IDH1-R132H homodimer enzyme (Homo sapiens (Human), UniProt O75874, R132H); assay: In vitro assay IDH1-R132H homodimer, NADPH depletion assay with NADPH/NADP preincubation; assay type: biochemical; conditions: 5 μM NADPH and 37.5 μM NADP
Method in brief: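 Compounds were added from DMSO at 50× final concentration, and the mutant enzyme was incubated 60 min at room temperature after starting with a substrate mix holding NADPH and 5 mM alpha-ketoglutarate. Residual cofactor, read by fluorescence after excess diaphorase and resazurin, reflects enzyme turnover.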

[2] = system: Neurosphere cells (TS603); assay: Cellular assay for IDH1m R132H inhibitors, 2-HG by LC-MS in neurosphere cells (TS603); assay type: cell-based; conditions: 2-HG in media at 48 hours
Method in brief: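 TS603 neurosphere cells in NeuroCult medium were dosed with compound (0.25% DMSO final) at 37 C, 5% CO2. After 48 hours, medium 2-HG was measured by LC-MS. At 72 hours, viability was read by CellTiter-Glo luminescence.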

[3] = biological target: IDH1 wt/IDH1 R132H heterodimer (Homo sapiens (Human), UniProt O75874, R132H); assay: In vitro assay for IDH1m R132H inhibitors, IDH1 wt/IDH1 R132H heterodimer, NADPH depletion (diaphorase/resazurin); assay type: biochemical
Method in brief: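 Read-out is NADPH left after α-KG reduction to 2-HG, measured via resorufin fluorescence after 5 min diaphorase/resazurin step at 25° C. Enzyme is sf9-expressed IDH1wt-his/IDH1R132H-flag heterodimer, pre-incubated 1 hr at room temperature with compound and cofactor. IC50s from DMSO stocks diluted 1:50.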

[4] = system: U87MG pLVX-IDH2 R140Q-neo cells; assay: U87MG pLVX-IDH2 R140Q-neo cell based assay, 2-HG by LC-MS; conditions: Homo sapiens, U-87 MG
[5] = biological target: IDH1-R132C homodimer enzyme (Homo sapiens (Human), UniProt O75874, R132C); assay: In vitro assay IDH1-R132C homodimer, NADPH depletion assay with NADPH/NADP preincubation; assay type: biochemical; conditions: 5 uM NADPH and 28.75 uM NADP, read-out: IDH R132C NADPH/NADP IC50
Protocol: The following describes the experimental procedures that can be used to obtain data on columns 3 and 5 of Table 5.
A test compound is prepared as 10 mM stock in DMSO and diluted to 50× final concentration in DMSO, for a 50 μl reaction mixture. IDH enzyme activity converting alpha-ketoglutarate to 2-hydroxyglutaric acid is measured using a NADPH depletion assay. In the assay the remaining cofactor is measured at the end of the reaction with the addition of a catalytic excess of diaphorase and resazurin, to generate a fluorescent signal in proportion to the amount of NADPH remaining. […] The reaction is started with the addition of 10 μl of Substrate Mix ([…], 5 mM alpha-ketoglutarate, in Assay Buffer) and the mixture is incubated for 60 minutes at room temperature.
The concentration of alpha-ketoglutarate in the Substrate Buffer is 1 mM.

IDH2 R140Q = IDH2 R140Q (Homo sapiens (Human), UniProt P48735, R140Q); assay: In vitro assay for IDH2m R140Q inhibitors, cofactor depletion assay; assay type: biochemical; conditions: IDH2 R140Q enzyme
Method in brief: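 Remaining cofactor measured fluorimetrically: diaphorase/resazurin Stop Mix […], halting the reaction. Before that, mutant enzyme and compound sat 1 h at RT, then substrate mix (4 μM NADPH, 1.6 mM α-KG) was added for 16 h at RT.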

[6] = IDH1 wt/R132H heterodimer, NADPH/NADP, not saturated, read-out: IDH1 wt/R132H NADPH/NADP IC50 not saturated
[7] = IDH1 wt/IDH1 R132H heterodimer, 300 μM NADP (saturated), read-out: IDH1 wt/R132H NADPH/NADP IC50 saturated

Chain of IDH1-R132C homodimer enzyme (O75874 whole entry R132C): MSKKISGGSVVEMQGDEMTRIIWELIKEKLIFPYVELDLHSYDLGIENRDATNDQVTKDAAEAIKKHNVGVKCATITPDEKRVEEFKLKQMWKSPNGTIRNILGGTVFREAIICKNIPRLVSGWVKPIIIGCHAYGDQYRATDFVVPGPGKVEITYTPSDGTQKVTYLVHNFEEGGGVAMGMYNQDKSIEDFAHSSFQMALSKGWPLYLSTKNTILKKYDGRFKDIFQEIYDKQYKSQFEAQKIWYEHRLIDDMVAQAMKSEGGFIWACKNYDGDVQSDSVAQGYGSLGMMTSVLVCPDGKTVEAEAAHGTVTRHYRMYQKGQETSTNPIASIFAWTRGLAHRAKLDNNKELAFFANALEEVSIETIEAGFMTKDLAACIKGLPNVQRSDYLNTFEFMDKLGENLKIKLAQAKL
Chain of IDH2 R140Q (P48735 40-452 R140Q): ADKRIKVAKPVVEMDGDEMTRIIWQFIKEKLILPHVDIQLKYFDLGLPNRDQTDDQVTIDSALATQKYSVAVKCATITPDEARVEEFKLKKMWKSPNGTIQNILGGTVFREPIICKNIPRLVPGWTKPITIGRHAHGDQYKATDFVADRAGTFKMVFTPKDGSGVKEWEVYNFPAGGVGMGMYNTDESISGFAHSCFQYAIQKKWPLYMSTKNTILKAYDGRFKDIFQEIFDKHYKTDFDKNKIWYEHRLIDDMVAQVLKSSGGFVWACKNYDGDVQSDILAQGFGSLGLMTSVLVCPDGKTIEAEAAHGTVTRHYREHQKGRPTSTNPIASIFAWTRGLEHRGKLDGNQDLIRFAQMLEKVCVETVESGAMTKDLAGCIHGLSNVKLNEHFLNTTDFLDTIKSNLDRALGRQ
Chain of IDH1-R132H homodimer enzyme (O75874 whole entry R132H): as the sequence (O75874 whole entry R132C) above, with C132H counted along it
Chain of IDH1 wt/IDH1 R132H heterodimer (O75874 whole entry R132H): as the sequence (O75874 whole entry R132C) above, with C132H counted along it
Chain of IDH1 wt/IDH1 R132H heterodimer (O75874 whole entry, stated change not applied): as the sequence (O75874 whole entry R132C) above, with C132R counted along it

| pIC50 [1] | pIC50 [2] | pIC50 [3, 6] | pIC50 [4] | pIC50 [5] | pIC50 (IDH2 R140Q) | pIC50 [3, 7] | SMILES |
| --- | --- | --- | --- | --- | --- | --- | --- |
| 6.00 to 7.00 | > 7.30 | > 7.30 | > 7.30 | < 6.00 | > 7.30 | – | FC1(F)CC(Nc2nc(Nc3ccnc(C(F)(F)F)c3)nc(-c3cccc(C(F)(F)F)n3)n2)C1 [Compound 190] |
| > 7.30 | > 7.30 | – | > 7.30 | 7.00 to 7.30 | > 7.30 | > 7.30 | N#CC1(c2cc(Nc3nc(N[C@@H]4CCC(F)(F)C4)nc(-n4ccc(C(F)(F)F)n4)n3)ccn2)CC1 [Compound 350] |
| > 7.30 | > 7.30 | – | > 7.30 | > 7.30 | > 7.30 | > 7.30 | FC1(F)CC[C@@H](Nc2nc(N[C@@H]3CCC(F)(F)C3)nc(-c3cncc(C(F)(F)F)n3)n2)C1 [Compound 410] |
| > 7.30 | > 7.30 | > 7.30 | > 7.30 | 7.00 to 7.30 | > 7.30 | – | N#CC1(c2cc(Nc3nc(N[C@H]4CCC(F)(F)C4)nc(-n4ccc(C(F)(F)F)n4)n3)ccn2)CC1 [Compound 174] |
| 6.00 to 7.00 | > 7.30 | – | > 7.30 | 6.00 to 7.00 | > 7.30 | > 7.30 | C[C@@H](Nc1nc(Nc2ccnc(C(F)(F)F)c2)nc(-n2ccc(C(F)(F)F)n2)n1)C(F)(F)F [Compound 400] |
| 7.00 to 7.30 | > 7.30 | > 7.30 | > 7.30 | 6.00 to 7.00 | > 7.30 | – | FC1(F)CC[C@H](Nc2nc(Nc3ccnc(C(F)(F)F)c3)nc(-c3cccc(C(F)(F)F)n3)n2)C1 [Compound 158] |
| 7.00 to 7.30 | > 7.30 | – | > 7.30 | 6.00 to 7.00 | > 7.30 | > 7.30 | FC1(F)CC[C@H](Nc2nc(Nc3ccnc(C(F)(F)F)c3)nc(-n3ccc(C(F)(F)F)n3)n2)C1 [Compound 393] |
| 7.00 to 7.30 | > 7.30 | > 7.30 | > 7.30 | 6.00 to 7.00 | > 7.30 | – | N#CC1(c2cc(Nc3nc(N[C@H]4CCC(F)(F)C4)nc(-c4cccc(C(F)(F)F)n4)n3)ccn2)CC1 [Compound 133] |
